Experimental data published in EP4700025A1, “AMIDE COMPOUND, PHARMACEUTICAL COMPOSITION COMPRISING SAME, AND USE THEREOF” (Suzhou Genhouse Bio Co., Ltd., priority 2023, dated 2024).
Like-named read-outs stand apart in the source and are kept apart here. Blank lines part the entries; values can stand above or below the compound they belong to.

Experiments:
A549 = assay: CCK8 proliferation inhibition, A549; format: cell-based; settings: Homo sapiens, 192 h, CCK8, 8 days after drug treatment
SDMA [1] = assay: SDMA Inhibition Assay in HCT-116 cells; format: cell-based; settings: Homo sapiens, HCT-116, 96 hours
CYP450 3A4 = molecular target: T1, CYP450 3A4 (Homo sapiens, UniProt P08684); assay: Inhibition of human liver microsome CYP450 enzyme 3A4; format: in vitro ADME
T1 construct: from tissue; host or cells: human liver microsomes
Experimental: 100 mM K-Buffer: 9.5 mL of stock solution A was mixed with 40.5 mL of stock solution B, the total volume was adjusted to 500 mL with ultrapure water, and the buffer was titrated to pH 7.4 with KOH or H3PO4. • Starting material A (1 M potassium dihydrogen phosphate): 136.5 g of potassium dihydrogen phosphate in 1 L of water; • Stock solution B ([…]): 174.2 g of potassium dihydrogen phosphate in 1 L of water.
The test substance powder was prepared into a stock solution at a certain concentration with DMSO or another organic solvent, which was then further diluted with a suitable organic solvent.
The liver microsomal in vitro incubation system for the CYP450 enzyme metabolism phenotype study was a biochemical reaction of the prepared liver microsomes supplemented with a redox coenzyme and an enzyme-specific selective inhibitor under simulated physiological temperature and physiological environment conditions.
The concentration of the parent drug or a metabolite thereof in the incubation solution was determined by LC-MS/MS. and the IC50 value was calculated.

SDMA [2] = assay: SDMA Inhibition Assay in HCT-116-MTAP^-/- cells; format: cell-based; settings: Homo sapiens, 96 hours
[3] = Pharmacokinetic assay in rats; format: in vivo, SD rats; settings: rat; for AUC(0-inf) / AUC(0-t) / C0 / MRT inf / Vd / Cmax / Tmax: plasma; for MRT inf: read-out: MRT(0-∞); for Vd: read-out: Vz
Experimental: In this experimental example, the pharmacokinetic behavior of the test compounds after administration by intravenous injection (IV) and oral gavage (PO) in SD rats was tested.
On the day of administration, rats were weighed for actual body weight, and the administration volume was calculated. Each compound was tested in two groups with 3 rats in each group; one group was subjected to administration by single intravenous injection, and the other group was subjected to administration by single oral gavage. The whole blood samples were collected via the jugular vein at prescribed time points (0.25 h, 0.5 h, 1 h, 2 h, 4 h, 8 h, and 24 h after administration). After the blood sample collection, the samples were immediately transferred to labeled commercial sample tubes containing K2-EDTA (0.85-1.15 mg), followed by centrifugation (3200× g, 4 °C, 10 min) and plasma collection. The plasma was transferred to a pre-cooled centrifuge tube, frozen in dry ice, and then stored in an ultra-low temperature freezer at -60 °C or lower until the LC-MS/MS analysis was performed.
Plasma concentrations were determined by the LC-MS/MS method. Plasma drug concentration data for the compounds were processed using a non-compartmental model in the WinNonlin Version 6.3 (Pharsight, Mountain View, CA) pharmacokinetic software. The relevant pharmacokinetic parameters were calculated by a linear-log trapezoidal method.

[4] = Pharmacokinetic assay in mice; format: in vivo, Balb/c mice; settings: mouse; for F: PO 10mpk vs IV 2mpk; for AUC(0-inf) / AUC(0-t) / C0 / MRT inf / Vd / Cmax / Tmax: plasma; for MRT inf: read-out: MRT(0-∞); for Vd: read-out: Vz
Experimental: Eighteen male Balb/c mice aged 6 to 8 weeks were randomly divided into 2 groups (IV group and PO group). The corresponding compounds were administered to the animals in the IV group by tail intravenous injection at 2 mg/kg, and the corresponding compounds were administered to the animals in the PO group by oral gavage at 10 mg/kg or 100 mg/kg. The animals in the IV group were allowed free access to food and water, and the animals in the PO group were fasted overnight before administration and were fed 4 h after administration. Throughout the experiment, the animals were allowed free access to water. Plasma samples were separately collected at 0.083 h (only group IV), 0.25 h, 0.5 h, 1 h, 2 h, 4 h, 8 h, and 24 h after administration. About 100 µL of blood was collected from the orbit of the animal, placed into a 1.5 mL anticoagulation centrifuge tube, and centrifuged at 8000 rpm and 4 °C for 10 min. The upper plasma sample was transferred to an EP tube. The plasma samples were stored in a refrigerator at -80 °C until sample analysis. Pharmacokinetic parameters of the drug were calculated based on the drug concentration-time data, including the peak concentration Cmax, peak time Tmax, clearance rate CL, steady state apparent volume of distribution Vss, area under drug-time curve AUC, elimination half-life t1/2, bioavailability, and the like. Data below the 80% lower limit of quantification were excluded from the calculation of pharmacokinetic parameters.

SDMA [5] = assay: SDMA Inhibition Assay in A549 cells; format: cell-based; settings: Homo sapiens, A549, 96 hours
[6] = PO 10mpk (IV reference 2mpk; 0.2mpk for I-7)
[7] = male, Balb/c, 10 mg/kg, PO 10mpk

T1 sequence (P08684 whole entry): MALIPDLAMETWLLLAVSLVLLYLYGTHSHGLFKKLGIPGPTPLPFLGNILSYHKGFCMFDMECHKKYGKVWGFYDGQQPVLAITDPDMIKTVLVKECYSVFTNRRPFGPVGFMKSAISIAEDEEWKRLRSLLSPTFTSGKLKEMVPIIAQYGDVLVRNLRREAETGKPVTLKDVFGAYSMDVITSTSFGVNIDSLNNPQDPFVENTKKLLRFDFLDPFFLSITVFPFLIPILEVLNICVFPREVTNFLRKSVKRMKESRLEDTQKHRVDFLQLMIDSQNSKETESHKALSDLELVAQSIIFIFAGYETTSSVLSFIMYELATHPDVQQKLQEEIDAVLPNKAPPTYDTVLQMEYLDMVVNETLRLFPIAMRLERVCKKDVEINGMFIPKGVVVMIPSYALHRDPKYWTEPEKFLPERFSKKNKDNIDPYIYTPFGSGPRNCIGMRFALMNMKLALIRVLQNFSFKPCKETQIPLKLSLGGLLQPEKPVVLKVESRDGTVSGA

SMILES: Cn1ncc2c(N)nc3cc(F)c(C(=O)N4CCOC[C@@H]4c4ccc5c(c4)OC(F)(F)O5)cc3c21 [Example I-7]
EC50 (A549): 0.0347 µM | EC50 (SDMA [1]): 0.181 µM | IC50 (CYP450 3A4; human, microsomes, pH 7.4): > 10 µM | EC50 (SDMA [2]): 0.002 µM | AUC(0-inf) ([3]; 0.2 mg/kg, IV 0.2mpk): 0.22 µM·h | AUC(0-t) ([3]; 0.2 mg/kg, IV 0.2mpk): 0.148 µM·h | C0 ([3]; 0.2 mg/kg, IV 0.2mpk): 176 nM | MRT inf ([3]; 0.2 mg/kg, IV 0.2mpk): 1.8 h | Vd ([3]; 0.2 mg/kg, IV 0.2mpk): 3.5 L/kg | AUC(0-inf) ([3]; 10 mg/kg, PO 10mpk): 9.6 µM·h | AUC(0-t) ([3]; 10 mg/kg, PO 10mpk): 6.58 µM·h | Cmax ([3]; 10 mg/kg, PO 10mpk): 781 nM | Tmax ([3]; 10 mg/kg, PO 10mpk): 4.3 h | MRT inf ([3]; 10 mg/kg, PO 10mpk): 9.9 h | CLz ([3]; IV 0.2mpk): 31.7 mL/min/kg | R_AUC(t/∞) ([3]; IV 0.2mpk): 67% | t1/2z ([3]; IV 0.2mpk): 1.3 h | R_AUC(t/∞) ([3]; PO 10mpk): 76.9% | t1/2z ([3]; PO 10mpk): 8.1 h | F [3, 6]: 89.1% | CLz ([4]; IV 2mpk): 13 mL/min/kg | R_AUC(t/∞) ([4]; IV 2mpk): 95.1% | t1/2z ([4]; IV 2mpk): 1.9 h | R_AUC(t/∞) ([4]; PO 10mpk): 97.1% | t1/2z ([4]; PO 10mpk): 4.9 h | F [4]: 159.9% | AUC(0-inf) ([4]; 2 mg/kg, IV 2mpk): 4.89 µM·h | AUC(0-t) ([4]; 2 mg/kg, IV 2mpk): 4.65 µM·h | C0 ([4]; 2 mg/kg, IV 2mpk): 2620 nM | MRT inf ([4]; 2 mg/kg, IV 2mpk): 2.7 h | Vd ([4]; 2 mg/kg, IV 2mpk): 2.3 L/kg | AUC(0-inf) ([4]; 10 mg/kg, PO 10mpk): 39.1 µM·h | AUC(0-t) ([4]; 10 mg/kg, PO 10mpk): 38 µM·h | Cmax ([4]; 10 mg/kg, PO 10mpk): 5010 nM | Tmax ([4]; 10 mg/kg, PO 10mpk): 2 h | MRT inf ([4]; 10 mg/kg, PO 10mpk): 6.1 h | EC50 (SDMA [5]): 0.0012 µM

SMILES: Cn1ncc2c(N)nc3cnc(C(=O)N4CCOC[C@@H]4c4ccc5c(c4)OC(F)(F)O5)cc3c21 [Example I-38]
EC50 (A549): 0.0537 µM | EC50 (SDMA [1]): 0.147 µM | IC50 (CYP450 3A4; human, microsomes, pH 7.4): > 10 µM | EC50 (SDMA [2]): 0.0015 µM | AUC(0-t) ([3]; 2 mg/kg, IV 2mpk): 4 µM·h | AUC(0-t) ([3]; 100 mg/kg, PO 100mpk): 199 µM·h | Cmax ([3]; 100 mg/kg, PO 100mpk): 10200 nM | F ([3]; PO 100mpk vs IV 2 mpk): 99% | AUC(0-t) ([4]; 2 mg/kg, IV 2mpk): 7.87 µM·h | AUC(0-t) ([4]; 100 mg/kg, PO 100mpk): 710 µM·h | Cmax ([4]; 100 mg/kg, PO 100mpk): 52100 nM | EC50 (SDMA [5]): 0.0017 µM

EC50 (A549): 0.0246 µM | EC50 (SDMA [1]): 0.201 µM | IC50 (CYP450 3A4; human liver microsomes, 3A4, read-out: IC50): > 10 µM | EC50 (SDMA [2]): 0.0012 µM | AUC(0-inf) ([3]; SD, 2 mg/kg, IV 2mpk): 2.43 µM·h | AUC(0-t) ([3]; SD, 2 mg/kg, IV 2mpk): 2.15 µM·h | C0 ([3]; SD, 2 mg/kg, IV 2mpk): 1140 nM | MRT inf ([3]; SD, 2 mg/kg, IV 2mpk): 3.1 h | Vd ([3]; SD, 2 mg/kg, IV 2mpk): 5.6 L/kg | AUC(0-inf) ([3]; SD, 10 mg/kg, PO 10mpk): 13.2 µM·h | AUC(0-t) ([3]; SD, 10 mg/kg, PO 10mpk): 9.06 µM·h | Cmax ([3]; SD, 10 mg/kg, PO 10mpk): 808 nM | Tmax ([3]; SD, 10 mg/kg, PO 10mpk): 4.7 h | MRT inf ([3]; SD, 10 mg/kg, PO 10mpk): 13.2 h | CLz ([3]; IV 2mpk): 31.7 mL/min/kg | R_AUC(t/∞) ([3]; IV 2mpk): 88.8% | t1/2z ([3]; IV 2mpk): 2.3 h | R_AUC(t/∞) ([3]; PO 10mpk): 71.5% | t1/2z ([3]; PO 10mpk): 9.3 h | F [3, 6]: 84% | AUC(0-inf) ([4]; male, Balb/c, 2 mg/kg, IV 2mpk): 6.37 µM·h | AUC(0-t) ([4]; male, Balb/c, 2 mg/kg, IV 2mpk): 6.24 µM·h | C0 ([4]; male, Balb/c, 2 mg/kg, IV 2mpk): 1960 nM | MRT inf ([4]; male, Balb/c, 2 mg/kg, IV 2mpk): 4.9 h | Vd ([4]; male, Balb/c, 2 mg/kg, IV 2mpk): 4.3 L/kg | AUC(0-inf) [4, 7]: 34.5 µM·h | AUC(0-t) [4, 7]: 34.4 µM·h | Cmax [4, 7]: 4760 nM | Tmax [4, 7]: 1 h | MRT inf [4, 7]: 5.2 h | CLz ([4]; IV 2mpk): 12 mL/min/kg | R_AUC(t/∞) ([4]; IV 2mpk): 97.9% | t1/2z ([4]; IV 2mpk): 4.4 h | R_AUC(t/∞) ([4]; PO 10mpk): 99.6% | t1/2z ([4]; PO 10mpk): 3.1 h | F [4]: 108% | EC50 (SDMA [5]): 0.0008 µM
SMILES: Cn1ncc2c(N)nc3cc(F)c(C(=O)N(Cc4ccc5c(c4)OC(F)(F)O5)C4CC4)cc3c21 [Example I-16]
